# In patent US10617693B2, “Methods of treating and/or preventing actinic keratosis” (Athenex, Inc., priority 2017, dated 2020):
# System: subjects with AK on the face or scalp
# Test: Phase 2a study KX01-AK-002: local skin reactions (grade 0 not present to 4 worst) and adverse events, 0.5 mg KX-01 on 25 cm^2
# Assay type: in vivo, human
# Description: An ongoing Phase 2a, open-label, multicenter, activity and safety study of KX-01 administered topically in subjects with AK on the face or scalp is described herein. […] Secondary objectives are to assess the activity of KX-01 administered topically during Days 1-57 based on reduction of AK lesion counts from baseline, assess the safety and tolerability and pharmacokinetics, and contrast the dose regimens (5-day treatment with 3-day treatment) in terms of activity and safety in subjects with AK on the face or scalp. This uncontrolled, nonrandomized trial is being conducted at 16 investigational sites in the United States. Enrollment is sequential for 2 cohorts of approximately 80 subjects each. Enrollment is closed for Cohort 1 and ongoing for Cohort 2. The two treatment cohorts are summarized below: • Cohort 1: 0.5 mg KX-01 administered topically to a contiguous treatment area of 25 cm^2 with 4-8 clinically typical AK lesions for 5 consecutive days • Cohort 2: 0.5 mg KX-01 administered topically to a contiguous treatment area of 25 cm^2 with 4-8 clinically typical AK lesions for 3 consecutive days
# 0.5 mg KX-01 is administered topically to an area of 25 cm^2 on the face or scalp by site staff on treatment days. […] AK lesion counts are recorded at baseline, days 8, 15, 29, and 57. […] Standardized photography of treatment area is performed at baseline, day 8 and day 57. Plasma samples are being collected at preplanned time points on days 1 and 5 for Cohort 1, and on days 1 and 3 for Cohort 2.
# Absence or presence of hyperpigmentation, hypopigmentation and scarring are also assessed. Application site reactions not classified as LSRs are reported as AEs. […] LSRs and AEs are reported separately. All LSRs, pigmentation, and scarring in the treatment area will be followed to resolution or stabilization.
# The range of possible composite scores is 0-24.
# The Phase 2a trial described in Example 2a was completed with 84 eligible subjects enrolled in each of two cohorts: one cohort was subjected to the treatment for 5 consecutive days, and the other cohort was subjected to the treatment for 3 consecutive days. The results are described below and in FIG. 5.
smiles,measurement,setting,value
O=C(Cc1ccc(-c2ccc(OCCN3CCOCC3)cc2)cn1)NCc1ccccc1 [KX-01],"Vesiculation/Pustulation grade 3, n/N subjects","Day 8, Cohort 1 (5-day)",0
same,"Vesiculation/Pustulation grade 4, n/N subjects","Day 8, Cohort 1 (5-day)",0
same,"Crusting grade 0, n/N subjects","Day 15, Cohort 1 (5-day)",63/67
same,"Crusting grade 1, n/N subjects","Day 15, Cohort 1 (5-day)",4/67
same,"Crusting grade 2, n/N subjects","Day 15, Cohort 1 (5-day)",0
same,"Crusting grade 3, n/N subjects","Day 15, Cohort 1 (5-day)",0
same,"Crusting grade 4, n/N subjects","Day 15, Cohort 1 (5-day)",0
same,"Erosion/Ulceration grade 0, n/N subjects","Day 15, Cohort 1 (5-day)",66/67
same,"Erosion/Ulceration grade 1, n/N subjects","Day 15, Cohort 1 (5-day)",1/67
same,"Erosion/Ulceration grade 2, n/N subjects","Day 15, Cohort 1 (5-day)",0
same,"Erosion/Ulceration grade 3, n/N subjects","Day 15, Cohort 1 (5-day)",0
same,"Erosion/Ulceration grade 4, n/N subjects","Day 15, Cohort 1 (5-day)",0
same,"Erythema grade 0, n/N subjects","Day 15, Cohort 1 (5-day)",27/67
same,"Erythema grade 1, n/N subjects","Day 15, Cohort 1 (5-day)",25/67
same,"Erythema grade 2, n/N subjects","Day 15, Cohort 1 (5-day)",13/67
same,"Erythema grade 3, n/N subjects","Day 15, Cohort 1 (5-day)",2/67
same,"Erythema grade 4, n/N subjects","Day 15, Cohort 1 (5-day)",0
same,"Flaking/Scaling grade 0, n/N subjects","Day 15, Cohort 1 (5-day)",39/67
same,"Flaking/Scaling grade 1, n/N subjects","Day 15, Cohort 1 (5-day)",14/67
same,"Flaking/Scaling grade 2, n/N subjects","Day 15, Cohort 1 (5-day)",9/67
same,"Flaking/Scaling grade 3, n/N subjects","Day 15, Cohort 1 (5-day)",5/67
same,"Flaking/Scaling grade 4, n/N subjects","Day 15, Cohort 1 (5-day)",0
same,"Swelling grade 0, n/N subjects","Day 15, Cohort 1 (5-day)",67/67
same,"Swelling grade 1, n/N subjects","Day 15, Cohort 1 (5-day)",0
same,"Swelling grade 2, n/N subjects","Day 15, Cohort 1 (5-day)",0
same,"Swelling grade 3, n/N subjects","Day 15, Cohort 1 (5-day)",0
same,"Swelling grade 4, n/N subjects","Day 15, Cohort 1 (5-day)",0
same,"Vesiculation/Pustulation grade 0, n/N subjects","Day 15, Cohort 1 (5-day)",67/67
same,"Vesiculation/Pustulation grade 1, n/N subjects","Day 15, Cohort 1 (5-day)",0
same,"Vesiculation/Pustulation grade 2, n/N subjects","Day 15, Cohort 1 (5-day)",0
same,"Vesiculation/Pustulation grade 3, n/N subjects","Day 15, Cohort 1 (5-day)",0
same,"Vesiculation/Pustulation grade 4, n/N subjects","Day 15, Cohort 1 (5-day)",0
same,"Crusting grade 0, n/N subjects","Day 29, Cohort 1 (5-day)",65/67
same,"Crusting grade 1, n/N subjects","Day 29, Cohort 1 (5-day)",2/67
same,"Crusting grade 2, n/N subjects","Day 29, Cohort 1 (5-day)",0
same,"Crusting grade 3, n/N subjects","Day 29, Cohort 1 (5-day)",0
same,"Crusting grade 4, n/N subjects","Day 29, Cohort 1 (5-day)",0
same,"Erosion/Ulceration grade 0, n/N subjects","Day 29, Cohort 1 (5-day)",67/67
same,"Erosion/Ulceration grade 1, n/N subjects","Day 29, Cohort 1 (5-day)",0
same,"Erosion/Ulceration grade 2, n/N subjects","Day 29, Cohort 1 (5-day)",0
same,"Erosion/Ulceration grade 3, n/N subjects","Day 29, Cohort 1 (5-day)",0
same,"Erosion/Ulceration grade 4, n/N subjects","Day 29, Cohort 1 (5-day)",0
same,"Erythema grade 0, n/N subjects","Day 29, Cohort 1 (5-day)",45/67
same,"Erythema grade 1, n/N subjects","Day 29, Cohort 1 (5-day)",18/67
same,"Erythema grade 2, n/N subjects","Day 29, Cohort 1 (5-day)",4/67
same,"Erythema grade 3, n/N subjects","Day 29, Cohort 1 (5-day)",0
same,"Erythema grade 4, n/N subjects","Day 29, Cohort 1 (5-day)",0
same,"Flaking/Scaling grade 0, n/N subjects","Day 29, Cohort 1 (5-day)",51/67
same,"Flaking/Scaling grade 1, n/N subjects","Day 29, Cohort 1 (5-day)",13/67
same,"Flaking/Scaling grade 2, n/N subjects","Day 29, Cohort 1 (5-day)",2/67
same,"Flaking/Scaling grade 3, n/N subjects","Day 29, Cohort 1 (5-day)",1/67
same,"Flaking/Scaling grade 4, n/N subjects","Day 29, Cohort 1 (5-day)",0
same,"Swelling grade 0, n/N subjects","Day 29, Cohort 1 (5-day)",66/67
same,"Swelling grade 1, n/N subjects","Day 29, Cohort 1 (5-day)",1/67
same,"Swelling grade 2, n/N subjects","Day 29, Cohort 1 (5-day)",0
same,"Swelling grade 3, n/N subjects","Day 29, Cohort 1 (5-day)",0
same,"Swelling grade 4, n/N subjects","Day 29, Cohort 1 (5-day)",0
same,"Vesiculation/Pustulation grade 0, n/N subjects","Day 29, Cohort 1 (5-day)",67/67
same,"Vesiculation/Pustulation grade 1, n/N subjects","Day 29, Cohort 1 (5-day)",0
same,"Vesiculation/Pustulation grade 2, n/N subjects","Day 29, Cohort 1 (5-day)",0
same,"Vesiculation/Pustulation grade 3, n/N subjects","Day 29, Cohort 1 (5-day)",0
same,"Vesiculation/Pustulation grade 4, n/N subjects","Day 29, Cohort 1 (5-day)",0
same,"Crusting grade 0, n/N subjects","Day 57, Cohort 1 (5-day)",63/67
same,"Crusting grade 1, n/N subjects","Day 57, Cohort 1 (5-day)",4/67
same,"Crusting grade 2, n/N subjects","Day 57, Cohort 1 (5-day)",0
same,"Crusting grade 3, n/N subjects","Day 57, Cohort 1 (5-day)",0
same,"Crusting grade 4, n/N subjects","Day 57, Cohort 1 (5-day)",0
same,"Erosion/Ulceration grade 0, n/N subjects","Day 57, Cohort 1 (5-day)",67/67
same,"Erosion/Ulceration grade 1, n/N subjects","Day 57, Cohort 1 (5-day)",0
same,"Erosion/Ulceration grade 2, n/N subjects","Day 57, Cohort 1 (5-day)",0
same,"Erosion/Ulceration grade 3, n/N subjects","Day 57, Cohort 1 (5-day)",0
same,"Erosion/Ulceration grade 4, n/N subjects","Day 57, Cohort 1 (5-day)",0
same,"Erythema grade 0, n/N subjects","Day 57, Cohort 1 (5-day)",53/67
same,"Erythema grade 1, n/N subjects","Day 57, Cohort 1 (5-day)",12/67
same,"Erythema grade 2, n/N subjects","Day 57, Cohort 1 (5-day)",2/67
same,"Erythema grade 3, n/N subjects","Day 57, Cohort 1 (5-day)",0
same,"Erythema grade 4, n/N subjects","Day 57, Cohort 1 (5-day)",0
same,"Flaking/Scaling grade 0, n/N subjects","Day 57, Cohort 1 (5-day)",57/67
same,"Flaking/Scaling grade 1, n/N subjects","Day 57, Cohort 1 (5-day)",10/67
same,"Flaking/Scaling grade 2, n/N subjects","Day 57, Cohort 1 (5-day)",0
same,"Flaking/Scaling grade 3, n/N subjects","Day 57, Cohort 1 (5-day)",0
same,"Flaking/Scaling grade 4, n/N subjects","Day 57, Cohort 1 (5-day)",0
same,"Swelling grade 0, n/N subjects","Day 57, Cohort 1 (5-day)",67/67
same,"Swelling grade 1, n/N subjects","Day 57, Cohort 1 (5-day)",0
same,"Swelling grade 2, n/N subjects","Day 57, Cohort 1 (5-day)",0
same,"Swelling grade 3, n/N subjects","Day 57, Cohort 1 (5-day)",0
same,"Swelling grade 4, n/N subjects","Day 57, Cohort 1 (5-day)",0
same,"Vesiculation/Pustulation grade 0, n/N subjects","Day 57, Cohort 1 (5-day)",67/67
same,"Vesiculation/Pustulation grade 1, n/N subjects","Day 57, Cohort 1 (5-day)",0
same,"Vesiculation/Pustulation grade 2, n/N subjects","Day 57, Cohort 1 (5-day)",0
same,"Vesiculation/Pustulation grade 3, n/N subjects","Day 57, Cohort 1 (5-day)",0
same,"Vesiculation/Pustulation grade 4, n/N subjects","Day 57, Cohort 1 (5-day)",0
same,Grade 4 LSRs,"after 5 days of treatment, interim",no Grade 4 LSRs were observed
same,Safety and tolerability,topically once daily for 5 days,safe and well tolerated
